System: Lewis lung cells (lung cell carcinoma)
Assay: Effect of 9d in combination with Cisplatin on tumour growth, Lewis lung (Example 13)
Assay type: in vivo, C57BL/6J mice
Conditions: for SURFACE Overall values (Mean) / SURFACE Overall values (Median) / VOLUME Overall values (Mean) / VOLUME Overall values (Median): Cisplatin 65 μg, or both
Excerpt: This assay was made in order to check the effect on in vivo tumour growth in mice challenged with Lewis lung cells. Their effect will be compared with the combination of chemotherapeutic agents plus 9d and/or placebo. Lewis Lung is a lung cell carcinoma originated in C57BL/6J mice strain, and therefore syngeneic in mice with C57BL/6J genetic background (Rodrigo Garzón M, Tirapu Fernández de la Cuesta […], Noel […] and […]. Use of Gene Therapy in a Subcutaneous Murine Model of Lung Cancer. Arch Bronconeumology. 42: 526-532; 2006). Lewis lung cells (CLS, Eppelheim, Germany) were maintained in vitro by serial passages every 3-4 days. […] Louis, Mo., USA) by seeding 5×10^6 cells onto 75 cm^2 culture flasks. Subcultures were carried out by collecting detached cells after treatment with trypsin-EDTA (Sigma, St. Louis, Mo., USA). Tumour cells, collected from 48 hour cultures, were used as source of Lewis Lung cells for the studies described below. […] Tumours were established by subcutaneous inoculation in the right hind flank. Mice were inoculated with 0.2 mL containing 2×10^5 viable cells. The day of subcutaneous inoculation will be considered Day 0 of the test. Mice were observed daily and the tumour size recorded twice a week. This was carried out by measuring two perpendicular diameters (d1/d2) with a calliper. These measures were used to obtain both tumour surface and volume: […] Results were expressed as single values and/or as the mean±SD or median from each experimental group. A case-control study was performed with treated and control mice in order to determine whether differences between placebo, 9d, Cisplatin or 9d+Cisplatin were present. The data obtained (tumour surface and volume) were tested for Normal distribution within the groups (Kolmogorov Smirnov test p<0.05). […] The U-test of Mann Withney was chosen for being one of the better known non-parametrical tests, anyway, results for this test are equivalent both to those of Wilcoxon's sum of ranges and Kruskal-Wallis two-groups test. We excluded of the study animals that have undetectable or unscored tumour on 31th day after tumour inoculation. Due to the high dispersion of data, outlayers were excluded of the study.

[1] = 9d 250 ng, day 0 after tumour inoculation
[2] = 9d 250 ng, day 10 after tumour inoculation
[3] = 9d 250 ng, day 13 after tumour inoculation
[4] = 9d 250 ng, day 17 after tumour inoculation
[5] = 9d 250 ng, day 20 after tumour inoculation
[6] = 9d 250 ng, day 24 after tumour inoculation
[7] = 9d 250 ng, day 27 after tumour inoculation
[8] = 9d 250 ng, day 31 after tumour inoculation

Q: How did the “Inhibition of the in vivo growth of Lewis lung tumour in inbred mice, in words” value (9d 250 ng, Cisplatin 65 μg i.p.) turn out when N.N.[Cl][Pt][Cl] [Cisplatin, reference compound] was run?
A: inhibit the in vivo growth

Q: And the “SURFACE Overall values (Mean)” value [1]?
A: 0 mm^2

Q: And the “SURFACE Overall values (Median)” value [1]?
A: 0 mm^2

Q: And the “VOLUME Overall values (Mean)” value [1]?
A: 0 mm^3

Q: What about the “VOLUME Overall values (Median)” value [1] of the same compound?
A: 0 mm^3

Q: What about the “SURFACE Overall values (Mean)” value [2] of the same compound?
A: 2.4 mm^2

Q: What about the “SURFACE Overall values (Median)” value [2] of the same compound?
A: 0 mm^2

Q: What about the “VOLUME Overall values (Mean)” value [2] of the same compound?
A: 3.27 mm^3

Q: What about the “VOLUME Overall values (Median)” value [2] of the same compound?
A: 0 mm^3

Q: What about the “SURFACE Overall values (Mean)” value [3] of the same compound?
A: 6.73 mm^2

Q: What about the “SURFACE Overall values (Median)” value [3] of the same compound?
A: 4 mm^2

Q: And the “VOLUME Overall values (Mean)” value [3]?
A: 11.23 mm^3

Q: And the “VOLUME Overall values (Median)” value [3]?
A: 4 mm^3

Q: What about the “SURFACE Overall values (Mean)” value [4] of the same compound?
A: 20.73 mm^2

Q: What about the “SURFACE Overall values (Median)” value [4] of the same compound?
A: 25 mm^2

Q: And the “VOLUME Overall values (Mean)” value [4]?
A: 49.97 mm^3

Q: What about the “VOLUME Overall values (Median)” value [4] of the same compound?
A: 56 mm^3

Q: And the “SURFACE Overall values (Mean)” value [5]?
A: 58.33 mm^2

Q: And the “SURFACE Overall values (Median)” value [5]?
A: 49 mm^2

Q: What about the “VOLUME Overall values (Mean)” value [5] of the same compound?
A: 269.1 mm^3

Q: And the “VOLUME Overall values (Median)” value [5]?
A: 171.5 mm^3

Q: And the “SURFACE Overall values (Mean)” value [6]?
A: 106.07 mm^2

Q: And the “SURFACE Overall values (Median)” value [6]?
A: 90 mm^2

Q: What about the “VOLUME Overall values (Mean)” value [6] of the same compound?
A: 619.43 mm^3

Q: What about the “VOLUME Overall values (Median)” value [6] of the same compound?
A: 405 mm^3

Q: What about the “SURFACE Overall values (Mean)” value [7] of the same compound?
A: 160.07 mm^2

Q: And the “SURFACE Overall values (Median)” value [7]?
A: 120 mm^2

Q: And the “VOLUME Overall values (Mean)” value [7]?
A: 1076.9 mm^3

Q: And the “VOLUME Overall values (Median)” value [7]?
A: 600 mm^3

Q: And the “SURFACE Overall values (Mean)” value [8]?
A: 204.93 mm^2

Q: And the “SURFACE Overall values (Median)” value [8]?
A: 169 mm^2

Q: And the “VOLUME Overall values (Mean)” value [8]?
A: 1530.4 mm^3

Q: And the “VOLUME Overall values (Median)” value [8]?
A: 1080 mm^3

Q: And the “Differences in Lewis Lung tumour growth rate vs. placebo, statistical significance p (Mann-Whitney U test)” value (either in surface or volume, days 10th, 13th and 17 th)?
A: < 0.05
